Experimental data reported in paper PMC8152690, “Biosynthetic access to the rare antiarose sugar via an unusual reductase-epimerase” (Chemical Science, 2020).

How the values were obtained:
RubS5 = biological target: T1, RubS5 (Streptomyces sp. KIB-H033, UniProt A0A1I9S3Q5); assay: HPLC and 1H-NMR of product; assay type: biochemical; settings: sugar phosphate co-substrate (D-glucose-1-phosphate in text, D-glucose-6-phosphate in Fig. 2 legend)
T1 construct: expressed and purified; rubrolone gene cluster
T1 sequence (A0A1I9S3Q5 1-289): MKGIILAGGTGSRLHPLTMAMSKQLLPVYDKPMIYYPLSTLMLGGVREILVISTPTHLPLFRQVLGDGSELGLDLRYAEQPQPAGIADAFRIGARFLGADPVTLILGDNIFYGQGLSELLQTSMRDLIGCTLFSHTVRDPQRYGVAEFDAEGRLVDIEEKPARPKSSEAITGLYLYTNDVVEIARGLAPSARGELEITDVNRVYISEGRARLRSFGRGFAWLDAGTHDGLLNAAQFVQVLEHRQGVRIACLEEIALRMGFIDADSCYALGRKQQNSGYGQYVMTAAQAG

RblE = tested on: T2, RblE; assay: spectrophotometric assay, decrease of NADPH absorbance; assay type: biochemical
T2 construct: rubterolone gene cluster

SMILES	HPLC and 1H-NMR of product (RubS5)	Km (RblE)
Cc1cn([C@H]2C[C@H](O)[C@@H](COP(=O)(O)OP(=O)(O)OP(=O)(O)O)O2)c(=O)[nH]c1=O [TTP]	buffer with TTP and D-glucose-6-phosphate. (b) RubS5 reaction	–
Cc1cn([C@H]2C[C@H](O)[C@@H](COP(=O)(O)OP(=O)(O)O[C@H]3O[C@H](C)C(=O)[C@H](O)[C@H]3O)O2)c(=O)[nH]c1=O [compound 1, TDP-4-keto-6-deoxy-D-glucose]	–	35 µM
